Results on 7 compounds are retold here after patent US9340507B2, “Substituted 4-pyridones and their use as inhibitors of neutrophil elastase activity” (Boehringer Ingelheim International GmbH, priority 2012, dated 2016).

As usually defined, the pIC50 is −log10 of the IC50, conventionally taken in molar units. A word on the aqueous solubility: it is the concentration that dissolves in the medium under given conditions.

pIC50: −log10 of the molar value.

Data set [1] concerns the target Human neutrophil elastase (Homo sapiens (Human), UniProt P08246). Put plainly: Human Neutrophil Elastase Assay. It counts as biochemical. Particulars: substrate MeOSuc-Ala-Ala-Pro-Val-AMC 250 μM, pH 7.5, fluorescence.
The nature of data set [2]: Determination of aqueous solubility from DMSO stock solutions (kinetic solubility method). The class given is physicochemical. Particulars: McIlvaine buffer pH 6.8, 24 h shaking, 2.5% DMSO, range 0.001 to 0.125 mg/ml. The method, then: Determination of Aqueous Solubility from DMSO Stock Solutions (“Kinetic Solubility Method”)
The aqueous solubility of examples of this invention is determined by comparing the amount dissolved in buffer to the amount dissolved in an acetonitrile/water (1/1) solution. Starting from a 10 mM DMSO stock solution, aliquots are diluted with acetonitrile/water (1/1) and McIlvaine buffer pH 6.8, respectively. After 24 h of shaking, the liquid phase is filtered and analyzed by LC-UV. The amount dissolved in buffer is compared to the amount dissolved in the acetonitrile/water (1/1) solution. Solubility is measured from 0.001 to 0.125 mg/ml at a DMSO concentration of 2.5%.

Chain of Human neutrophil elastase (P08246 30-267): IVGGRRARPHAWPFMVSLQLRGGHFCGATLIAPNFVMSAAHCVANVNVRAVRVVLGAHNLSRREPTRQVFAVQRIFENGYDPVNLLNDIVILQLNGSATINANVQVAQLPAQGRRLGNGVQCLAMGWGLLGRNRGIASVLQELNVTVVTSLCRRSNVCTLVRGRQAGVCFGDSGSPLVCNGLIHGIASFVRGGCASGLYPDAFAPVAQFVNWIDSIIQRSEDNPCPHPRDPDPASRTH

In data set [1], `Cc1c(-c2cccc(C(F)(F)F)c2)c(=O)c(C(=O)NCc2ccc([S+](C)[O-])cc2)cn1C(C)C` (single isomer, unassigned) [Example 27.1A] had a pIC50 of 8.27. In data set [2], the “aqueous solubility at pH 6.8” value turned out to be 0.081 mg/mL.

Regarding `Cc1c(-c2cccc(C(F)F)c2)c(=O)c(C(=O)NCc2ccc(S(C)(=O)=O)cc2)cn1C(C)C` [Example 4.14], the pIC50 in data set [1] was 7.96. For the same compound, the “aqueous solubility at pH 6.8” value in data set [2] worked out at 0.076 mg/mL.

Regarding `Cc1c(-c2cccc(C(F)(F)F)c2)c(=O)c(C(=O)NCc2ccc(S(C)(=O)=O)cc2)cn1CC(F)F` [Example 46, 1-(2,2-Difluoro-ethyl)-6-methyl-4-oxo-5-(3-trifluoromethyl-phenyl)-1,4-dihydro-pyridine-3-carboxylic acid 4-methanesulfonyl-benzylamide], in data set [1], the pIC50 was 7.34.

In the case of `COc1cc(S(C)(=O)=O)ccc1CNC(=O)c1cn(C(C)C)c(C)c(-c2cccc(C(F)(F)F)c2)c1=O` [Example 47, 1-Isopropyl-6-methyl-4-oxo-5-(3-trifluoromethyl-phenyl)-1,4-dihydro-pyridine-3-carboxylic acid 4-methanesulfonyl-2-methoxy-benzylamide], in data set [1], the pIC50 was 7.42.

In data set [1], `Cc1c(-c2cccc(C(F)(F)F)c2)c(=O)c(C(=O)NCc2ccc3c(c2)C=CS3(=O)=O)cn1C(C)C` [Example 48, 1-Isopropyl-6-methyl-4-oxo-5-(3-trifluoromethyl-phenyl)-1,4-dihydro-pyridine-3-carboxylic acid (1,1-dioxo-1H-1λ^6-benzo[b]thiophen-5-ylmethyl)-amide] gave a pIC50 of 7.96.

Consider `COc1cc(CNC(=O)c2cn(C(C)C)c(C)c(-c3cccc(C(F)(F)F)c3)c2=O)ccc1S(C)(=O)=O` [Example 49, 1-Isopropyl-6-methyl-4-oxo-5-(3-trifluoromethyl-phenyl)-1,4-dihydro-pyridine-3-carboxylic acid 4-methanesulfonyl-3-methoxy-benzylamide], for which the negative-log IC50 (pIC50) in data set [1] was 7.33.

As for `Cc1c(-c2cccc(C(F)F)c2)c(=O)c(C(=O)NCc2ccc3c(c2)C=CS3(=O)=O)cn1C(C)C` [Example 50, 5-(3-Difluoromethyl-phenyl)-1-isopropyl-6-methyl-4-oxo-1,4-dihydro-pyridine-3-carboxylic acid (1,1-dioxo-1H-1λ^6-benzo[b]thiophen-5-ylmethyl)-amide1], in data set [1], the pIC50 was 8.11.
